These results are taken from US20080188659A1, “Method for Preparing Halogenated Amines” (Wyeth, priority 2007, published 2008).

Where two headings read alike, the source gives them in different places.

For one assay, the target named is T1, mouse 11b-HSD1 (Mus musculus, UniProt P50172).
T1 construct: expressed in transfected cells
Description: cell-based assay, stable CHO cell line expressing mouse 11b-HSD1, cortisol measured with DiscoverX HitHunter Cortisol Assay. To be noted: CHO cells expressing mouse 11b-HSD1, 500 nM cortisone, 120 minutes. The procedure: To determine the potency of compounds against mouse 11b-HSD1, a stable CHO cell line expressing mouse 11b-HSD1 is used. Cells are plated at 20,000 cells/well in 96 well plates and incubated overnight (12-16 hrs) at 37° C./5% CO2. […] 10 ul of 5 micromolar cortisone (final concentration 500 nM) is then added to the cells and the plate is incubated at 37° C./5% CO2 for 120 minutes. 15 microliter of media is withdrawn and amount of cortisol in the media is measured using the DiscoverX HitHunter Cortisol Assay (DiscoverX corp, CA).

In another assay the target is T2, human 11b-HSD1 (Homo sapiens, UniProt P28845).
T2 construct: expressed in transfected cells
T2 sequence (P28845 whole entry): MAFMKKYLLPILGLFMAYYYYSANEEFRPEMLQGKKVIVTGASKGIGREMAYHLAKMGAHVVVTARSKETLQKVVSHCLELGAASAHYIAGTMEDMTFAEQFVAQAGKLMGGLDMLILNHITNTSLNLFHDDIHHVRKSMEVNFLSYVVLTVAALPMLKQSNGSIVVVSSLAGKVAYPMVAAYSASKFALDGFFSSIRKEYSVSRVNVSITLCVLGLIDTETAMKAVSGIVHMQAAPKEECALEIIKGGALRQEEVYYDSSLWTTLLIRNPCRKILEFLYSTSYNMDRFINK
Briefly: cell-based assay, stable CHO cell line expressing human 11b-HSD1, cortisol measured with DiscoverX HitHunter Cortisol Assay. To be noted: CHO cells expressing human 11b-HSD1; serum-free media; 500 nM cortisone, 120 minutes; read-out: Human 1C50. The method, then: Compounds described herein can be tested in a cell-based assay using a stable CHO cell line expressing human 11b-HSD1. Cells are plated at 20,000 cells/well in 96 well plates and incubated overnight (12-16 hrs) at 37° C./5% CO2. Cells are treated with different concentration of compound in 90 microliter serum-free media and incubated for 30 minutes at 37° C./5% CO2. 10 ul of 5 micromolar cortisone (final concentration 500 nM) is then added to the cells and the plate is incubated at 37° C./5% CO2 for 120 minutes. 15 microliter of media is withdrawn and amount of cortisol in the media is measured using the DiscoverX HitHunter Cortisol Assay (DiscoverX corp, CA).

The mark [1] stands for this setting: media containing 10% delipidized human serum, read-out: Mouse + Serum 1C50.
Setting [2] is: serum-free media, read-out: Mouse 1C50.

T1 sequence (P50172 whole entry): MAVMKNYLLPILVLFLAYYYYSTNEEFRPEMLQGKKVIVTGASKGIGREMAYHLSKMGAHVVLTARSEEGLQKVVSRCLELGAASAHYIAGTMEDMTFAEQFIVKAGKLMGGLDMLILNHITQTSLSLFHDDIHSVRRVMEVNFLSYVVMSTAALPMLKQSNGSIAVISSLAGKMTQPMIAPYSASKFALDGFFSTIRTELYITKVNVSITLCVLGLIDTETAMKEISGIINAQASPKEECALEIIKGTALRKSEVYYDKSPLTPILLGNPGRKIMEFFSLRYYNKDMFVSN

With `COc1ccc(N(C(=O)OC(C)(C)C)S(=O)(=O)c2cccc(C(N)(C(F)(F)F)C(F)(F)F)c2)cc1` [Example 8, 3-(1-Amino-2,2,2-trifluoro-1-trifluoromethyl-ethyl)-N-(tert-butoxycarbonyl)-N-(4-methoxy-phenyl)-benzenesulfonamide], the IC50 on mouse 11b-HSD1 (setting [1]), at mouse 11b-HSD1 (setting [2]) and at human 11b-HSD1 was greater than 10000 nM each time.

On to `CCN(CC)C(=O)c1ccc(C(N)(C(F)(F)F)C(F)(F)F)cc1` [Example 12, 4-(1-Amino-2,2,2-trifluoro-1-trifluoromethyl-ethyl)-N,N-diethyl-benzamide], for which the IC50 on mouse 11b-HSD1 (setting [1]) was 165 nM.

Consider `NC(c1cccc(S(=O)(=O)N2CCCC2)c1)(C(F)(F)F)C(F)(F)F` [Example 3, 2,2,2-Trifluoro-1-[3-(pyrrolidine-1-sulfonyl)-phenyl]-1-trifluoromethyl-ethylamine], for which the IC50 at mouse 11b-HSD1 (setting [1]), on mouse 11b-HSD1 (setting [2]) and at human 11b-HSD1 was greater than 10000 nM in each case.

Turning to `C[C@@H]1CN(c2ccc(C(N)(C(F)(F)F)C(F)(F)F)nc2)CCN1S(=O)(=O)c1cccc(C(C)(O)C(F)(F)F)c1` (stereo partly drawn) [Example 14, 2-(3-{[(2R)-4-{6-[1-amino-2,2,2-trifluoro-1-(trifluoromethyl)ethyl]pyridin-3-yl}-2-methylpiperazin-1-yl]sulfonyl}phenyl)-1,1,1-trifluoropropan-2-ol], the IC50 at mouse 11b-HSD1 (setting [2]) was 160 nM; at human 11b-HSD1, less than 10 nM.

In the case of `CCN(CC)S(=O)(=O)c1cccc(C(N)(C(F)(F)F)C(F)(F)F)c1` [Example 4, 3-(1-Amino-2,2,2-trifluoro-1-trifluoromethyl-ethyl)-N,N-diethyl-benzenesulfonamide], the IC50 at mouse 11b-HSD1 (setting [1]), on mouse 11b-HSD1 (setting [2]) and at human 11b-HSD1 was greater than 10000 nM throughout.

Turning to `CC(C)(C)OC(=O)N(Cc1ccccc1)S(=O)(=O)c1cccc(C(N)(C(F)(F)F)C(F)(F)F)c1` [Example 6, 3-(1-Amino-2,2,2-trifluoro-1-trifluoromethyl-ethyl)-N-benzyl-N-(tert-butoxycarbonyl)-benzenesulfonamide], the IC50 at mouse 11b-HSD1 (setting [1]), on mouse 11b-HSD1 (setting [2]) and at human 11b-HSD1 was greater than 10000 nM throughout.

`NC(c1ccc(S(=O)(=O)N2CCCCC2)cc1)(C(F)(F)F)C(F)(F)F` [Example 2, 2,2,2-Trifluoro-1-[4-(piperidine-1-sulfonyl)-phenyl]-1-trifluoromethyl-ethylamine]: the IC50 on mouse 11b-HSD1 (setting [1]) was 731 nM; on mouse 11b-HSD1 (setting [2]), 613 nM; on human 11b-HSD1 it was 428 nM.

As to `NC(c1ccc(C(=O)N2CCCCC2)cc1)(C(F)(F)F)C(F)(F)F` [Example 9, [4-(1-Amino-2,2,2-trifluoro-1-trifluoromethyl-ethyl)-phenyl]-piperidin-1-yl-methanone], the figures for the IC50 on mouse 11b-HSD1 (setting [1]), at mouse 11b-HSD1 (setting [2]) and at human 11b-HSD1 were 8380 nM, greater than 10000 nM and greater than 10000 nM, respectively.

On to `NC(c1cccc(C(=O)N2CCCCC2)c1)(C(F)(F)F)C(F)(F)F` [Example 7, [3-(1-Amino-2,2,2-trifluoro-1-trifluoromethyl-ethyl)-phenyl]-piperidin-1-yl-methanone], for which the IC50 is 2690 nM at mouse 11b-HSD1 (setting [1]), greater than 10000 nM at mouse 11b-HSD1 (setting [2]) and 2380 nM at human 11b-HSD1.

With `CCN(CC)S(=O)(=O)c1ccc(C(N)(C(F)(F)F)C(F)(F)F)cc1` [Example 13, 4-(1-Amino-2,2,2-trifluoro-1-trifluoromethyl-ethyl)-N,N-diethyl-benzenesulfonamide], the IC50 at mouse 11b-HSD1 (setting [1]) amounted to 645 nM; at mouse 11b-HSD1 (setting [2]) it was 225 nM; at human 11b-HSD1, 565 nM.

In the case of `CC(C)(C)OC(=O)N(C1CCCCC1)S(=O)(=O)c1cccc(C(N)(C(F)(F)F)C(F)(F)F)c1` [Example 5, 3-(1-Amino-2,2,2-trifluoro-1-trifluoromethyl-ethyl)-N-(tert-butoxycarbonyl)-N-cyclohexyl-benzenesulfonamide], the IC50 on mouse 11b-HSD1 (setting [1]), at mouse 11b-HSD1 (setting [2]) and on human 11b-HSD1 was greater than 10000 nM in each case.

On to `NC(c1cccc(S(=O)(=O)N2CCCCC2)c1)(C(F)(F)F)C(F)(F)F` [Example 1, 2,2,2-Trifluoro-1-[3-(piperidine-1-sulfonyl)-phenyl]-1-trifluoromethyl-ethylamine], for which the IC50 on mouse 11b-HSD1 (setting [1]) is 3320 nM; at mouse 11b-HSD1 (setting [2]) it was greater than 10000 nM; at human 11b-HSD1, greater than 10000 nM.

As to `C[C@@H]1CN(c2ccc(C(N)(C(F)(F)F)C(F)(F)F)cc2C(F)(F)F)CCN1S(=O)(=O)c1cccc(C(C)(O)C(F)(F)F)c1` (stereo partly drawn) [Example 15, 2-(3-{[(2R)-4-{4-[1-amino-2,2,2-trifluoro-1-(trifluoromethyl)ethyl]-2-(trifluoromethyl)phenyl}-2-methylpiperazin-1-yl]sulfonyl}phenyl)-1,1,1-trifluoropropan-2-ol], the IC50 is 200 nM on mouse 11b-HSD1 (setting [2]) and 80 nM on human 11b-HSD1.

With `CCN(CC)C(=O)c1cccc(C(N)(C(F)(F)F)C(F)(F)F)c1` [Example 11, 3-(1-Amino-2,2,2-trifluoro-1-trifluoromethyl-ethyl)-N,N-diethyl-benzamide], the IC50 on mouse 11b-HSD1 (setting [1]) worked out at 291 nM.

On to `C[C@@H]1CN(c2ccc(C(N)(C(F)(F)F)C(F)(F)F)cc2C(F)(F)F)CCN1S(=O)(=O)c1ccc(C(C)(O)C(F)(F)F)cc1` (stereo partly drawn) [Example 16, 2-{4-([(2R)-4-[4-[1-amino-2,2,2-trifluoro-1-(trifluoromethyl)ethyl]-2-(trifluoromethyl)phenyl]-2-methylpiperazin-1-yl}sulfonyl)phenyl]-1,1,1-trifluoropropan-2-ol], for which the figures for the IC50 on mouse 11b-HSD1 (setting [2]) and on human 11b-HSD1 were less than 100 nM and 90 nM, respectively.

Regarding `COc1ccc(N(C(=O)OC(C)(C)C)S(=O)(=O)c2ccc(C(N)(C(F)(F)F)C(F)(F)F)cc2)cc1` [Example 10, 4-(1-Amino-2,2,2-trifluoro-1-trifluoromethyl-ethyl)-N-(tert-butoxycarbonyl)-N-(4-methoxy-phenyl)-benzenesulfonamide], the IC50 on mouse 11b-HSD1 (setting [1]), at mouse 11b-HSD1 (setting [2]) and on human 11b-HSD1 was greater than 10000 nM in each case.
